biological target: T1, CMP-Neu5Ac hydroxylase (Mus musculus, UniProt Q61419); experiment: not given; design: concentration or dose not given beside the values; details: in vitro; cited from earlier work
T1 sequence (Q61419 5-577): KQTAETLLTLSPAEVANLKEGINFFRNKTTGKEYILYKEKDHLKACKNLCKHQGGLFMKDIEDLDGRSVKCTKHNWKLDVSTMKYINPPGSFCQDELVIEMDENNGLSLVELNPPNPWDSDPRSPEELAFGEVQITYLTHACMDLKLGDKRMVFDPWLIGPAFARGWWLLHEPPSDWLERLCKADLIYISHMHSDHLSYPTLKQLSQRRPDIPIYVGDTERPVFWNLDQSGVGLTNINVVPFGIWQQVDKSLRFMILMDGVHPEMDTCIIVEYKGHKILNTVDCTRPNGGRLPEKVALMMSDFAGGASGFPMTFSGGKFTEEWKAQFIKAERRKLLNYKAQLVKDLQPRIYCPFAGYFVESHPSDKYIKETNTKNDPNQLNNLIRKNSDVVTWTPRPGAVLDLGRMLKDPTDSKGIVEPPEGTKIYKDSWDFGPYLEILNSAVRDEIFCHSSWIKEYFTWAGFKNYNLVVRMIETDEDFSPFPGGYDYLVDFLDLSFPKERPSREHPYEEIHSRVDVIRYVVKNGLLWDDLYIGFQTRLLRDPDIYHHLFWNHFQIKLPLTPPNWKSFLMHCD

| Compound | inhibition of CMP-Neu5Ac hydroxylase [%] |
| --- | --- |
| [Co+2] [Co^2+] | 50 |
| [Zn+2] [Zn^2+] | 30 |
| O=S(=O)(O)c1cc(O)c(O)c(S(=O)(=O)O)c1 [tiron] | 100 |
| O=C(O)CN(CCN(CC(=O)O)CC(=O)O)CC(=O)O [EDTA] | 60 |
| [Mn+2] [Mn^2+] | 50 |
| O=S(=O)([O-])c1ccc(-c2nnc(-c3ccccn3)nc2-c2ccc(S(=O)(=O)[O-])cc2)cc1.[Na+].[Na+] [ferozzine] | 25 |
| c1cnc2c(c1)ccc1cccnc12 [phenanthreoline] | 25 |
| [Cu+2] [Cu^2+] | 80 |
| [Ni+3] [Ni^3+] | 50 |

tested on: Recombinant CHO cells; experiment: Neu5Gc content of glycoprotein secreted by CHO cells cultivated with medium additives (RP-HPLC of DMB-labelled sialic acids); assay type: cell-based, Chinese hamster; details: NAcMan 5 mM in fermentation medium, darbepoetin alfa
From the text: Recombinant CHO cells expressing high titres of the glycosylated human glycoproteins were cultivated in suspension culture using rich in-house standard medium without additives according to the invention. After 2 weeks of passages, the cells were first harvested and subsequently inoculated into the same medium, however, supplemented with a range of DMSO concentrations from 0.25% to 1.50% (w/v). The effect of DMSO on growth, productivity, degree of sialylation, and Neu5Gc content was studied.
“One factor at the time”-experiments with different DMSO concentrations at 37° C. and 33° C., respectively, were performed at first in an attempt to determine the DMSO concentration and temperature which are best to minimise the Neu5Gc content on the glycoproteins secreted. To study the interaction between the parameters (i) DMSO concentration, (ii) time of DMSO addition, and (iii) time of the temperature shift (from 37° C. to 33° C.), further experiments were performed with the Design-Expert/Design-Ease programme (Stat-Ease, Inc., Minneapolis, Minn., USA) using the response surface method. Parameters (i), (ii), and (iii) were chosen as numeric factors and the axial points were set slightly out of already known ranges in order to cover a wide design space. One replicate on axial points, one replicate on factorial points and 4 centre points were performed. The results were analysed using the Design of Expert (DOE) software (Design-Expert, Version 7.1). The results of the shake flask experiments were confirmed in the Biostat®B bioreactor (Sartorius, B. Braun Biotech International, Germany). Exponentially growing cells were taken from cell culture flasks having a surface area of 225 cm^2 (Corning®Costar®). A Biostat®B bioreactor with a working volume of 5 litres was inoculated with 2×10^5 cells/ml. Cells were cultivated in a batch mode under standard conditions (37° C., pH 7.0, dissolved oxygen concentration (DOT) 50%) in the rich in-house standard medium supplemented with 0.75% (w/v) DMSO.
In order to study the effect of key intermediates of the metabolic pathway leading to the sialylation of the glycoproteins and consequently to the conversion of Neu5Ac to Neu5Gc, a two factorial minimal resolution IV design, which allows for the estimation of the main effects, was established. Said design allowed the determination which of the components NAcMan, NAcGlc, Man, Fru, and Gal has/have an impact on the degree of sialylation and conversion of Neu5Ac to Neu5Gc. To confirm the results from the DOE findings, the production medium was enriched with 8.75 mM NAcMan and 8.75 mM NAcGlc in combination with manganese (Mn^2+) salts in different concentrations, e.g., in the concentrations mentioned earlier in this application.
At the end of the batch culture the cells were removed. The glycoproteins were purified from the remaining harvests by means of immuno-affinity chromatography. Briefly, up to 2 mg of each of the glycoproteins per ml of the chromatographic resin (20-500 ml of the harvest) were loaded onto the column. Elution of the glycoproteins was performed with 0.1 M Na-phosphate buffer, pH 2.5. By adding 1 M Na-phosphate buffer, pH 7.5 (made up by a combination of Na2H-phosphate and NaH2-phosphate), the pH of the eluate was immediately adjusted to 7 and then stored for further analysis at below −60° C.
Sialic acids (Neu5Gc, Neu5Ac, Neu-5,7Ac2, Neu5Gc9Ac, Neu-5,9Ac2, Neu-5,8,9Ac3) were differentiated using highly sensitive RP-HPLC. Enzymatic desialylation with neuraminidase (a2-3,6,8,9-neuraminidase (Sialidase) from Arthrobacter ureafaciens, Roche, USA) released sialic acids. The released sialic acids were labelled with the fluorescent dye 1,2-diamino-4,5-methylenedioxybenzene (DMB). DMB-labelling is non-selective and therefore provides a pool of labelled sialic acid derivates in stoichiometric amounts. Derivates of the DMB-labelled sialic acids were separated on an RP-HPLC column using isocratic elution. […]

| Compound | content of Neu5Gc |
| --- | --- |
| CC(=O)N[C@@H]1C(O)O[C@H](CO)[C@@H](O)[C@@H]1O (stereo partly drawn) [NAcMan, N-acetylmannosamine] | about 0.5% |

tested on: chickens; experiment: not given; details: rhEPO 1% Neu5Gc, fetuin 7% Neu5Gc, GM3 all Neu5Ac converted into Neu5Gc; cited from earlier work

| Compound | titre of antibodies against Neu5Gc in immunised chickens |
| --- | --- |
| fetuin: glycoprotein with a content of Neu5Gc amounting to 7% | a significant titre of antibodies against Neu5Gc |
| rhEPO: recombinant human erythropoietin produced by Chinese hamster ovary (CHO) cells | did not produce a significant titre |

Source: patent publication US9562082B2, “Production of glycoproteins with low N-glycolylneuraminic acid (Neu5Gc) content” (LEK Pharmaceuticals D.D., priority 2009, dated 2017)
